Measured values taken from patent publication US7612071B2, “Compositions and methods employing aminopterin” (Syntrix Biosystems, Inc., priority 2004, dated 2009).
Like-named read-outs stand apart in the source and are kept apart here.

Tests used:
[1] = Interpatient oral bioavailability in patients (oral vs intravenous AUC, matched); assay type: in vivo; conditions: human, plasma
Description: The term “interpatient oral bioavailability” as used herein refers to the mean oral bioavailability in a population of at least two patients, wherein the oral bioavailability is determined at least once for each patient in the population. The interpatient oral bioavailability may be calculated by dividing the mean population AUC after oral dosing by the mean population AUC after intravenous dosing, wherein the oral and intravenous doses are identical, and expressing the ratio as a percent. In a preferred method, the interpatient oral bioavailability is calculated using matched samples by averaging the oral bioavailabilities obtained for each patient. More specifically, the oral bioavailability is obtained for each patient by dividing the AUC after oral dosing the patient by the AUC after intravenous dosing the same patient with the same dose of antifolate (i.e. the oral and intravenous AUC in each patient are matched and the patients are said to be matched). The interpatient oral bioavailability based on these matched patients is then simply the mean population oral bioavailability expressed as a percent. […] It is sufficient to use a representative number of patients from a particular patient population to establish an interpatient oral bioavailability for that population, where at least 5 patients will be required in order to establish an interpatient oral bioavailability of a population.
The term “oral bioavailability” as used herein refers to the fraction of an antifolate dose given orally that is absorbed into the plasma after a single administration to a patient. A preferred method for determining the oral bioavailability is by dividing the AUC of an antifolate dose given orally by the AUC of the same antifolate dose given intravenously to the same patient, and expressing the ratio as a percent. […]

[2] = system: standard and high-risk ALL; conditions: for Coefficient of variation of toxicity of aminopterin as percent of that of methotrexate: both oral; for Therapeutic Component: Percentage effective (no evidence of a disease manifestation): greater than 12 months treatment, AMT 4 mg/m^2/wk high risk ALL (n=20), MTX 100 mg/m^2/wk standard risk ALL (n=20)
[3] = Potency relative to methotrexate; conditions: therapeutically effective amount for the same level of efficacy
[4] = molecular target: T1, partially purified chicken liver DHFR (Gallus gallus, UniProt P00378); test: Radioligand DHFR binding assay; conditions: aminopterin compared with methotrexate
T1 sequence (P00378 1-189): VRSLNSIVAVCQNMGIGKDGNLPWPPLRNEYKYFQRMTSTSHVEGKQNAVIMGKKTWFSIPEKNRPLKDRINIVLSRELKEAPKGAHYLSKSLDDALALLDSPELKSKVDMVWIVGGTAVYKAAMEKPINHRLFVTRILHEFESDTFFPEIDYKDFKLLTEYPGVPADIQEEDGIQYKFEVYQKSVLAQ

[5] = prior art; cited from earlier work
[6] = system: T-lineage acute lymphoblastic leukemia (ALL); conditions: for Therapeutic Index / Toxicity Component: Antifolate dose with same toxicity as MTX at 100 mg/m^2/wk: T-lineage ALL; for Therapeutic Component: Antifolate dose / Therapeutic Component: Percentage effective (complete remission or stable disease): peripheral blasts and bone marrow infiltrates in T-lineage ALL, n=7; for Therapeutic Component: Percentage effective (complete remission or stable disease): AMT 4 mg/m^2/wk, MTX >5000 mg/m^2/wk in the same patients
Description: Specifically, a clinical trial was performed in human adult and pediatric patients having T-lineage acute lymphoblastic leukemia (ALL) that was refractory to therapy or that had relapsed (see Table IV). The disease manifestations that were monitored were peripheral blasts and bone marrow infiltrates. The toxicity manifestations that were monitored were mucositis, neutropenia, thrombocytopenia and myelosuppression.

[7] = Interpatient coefficient of variation of oral bioavailability; assay type: in vivo; conditions: human, plasma, 2 mg/m2; AMT 2 mg/m^2 PO, pediatric and adult patients, n=27
Description: The term “interpatient coefficient of variation of oral bioavailability” as used herein refers to the coefficient of variation of oral bioavailability in a population of at least two patients, wherein the oral bioavailability is determined at least once for each patient in the population. Specifically, it is the standard deviation of oral bioavailability in the population divided by the interpatient oral bioavailability, expressed as a percent. […] It is sufficient to use a representative number of patients from a particular patient population to establish the interpatient coefficient of variation of oral bioavailability for that population, where at least 5 patients will be required in order to establish the interpatient coefficient of variation of oral bioavailability of a population.
The standard deviation of oral bioavailability and interpatient oral bioavailability were determined among 27 matched patients.
Pharmacol. 10(1):36, 1982].

[8] = mice, 4 weekly ip doses (aminopterin 0.03 mg/kg, methotrexate 0.3 mg/kg)
[9] = AMT 2 mg/m^2 PO x 2 (n=75), MTX 25 mg/m^2 PO x 4 (n=41)
[10] = AMT 2 mg/m^2 PO x 2 (n=81), MTX 25 mg/m^2 PO x 4 (n=42)
[11] = AMT 2 mg/m^2 PO x 2 (n=104), MTX 25 mg/m^2 PO x 4 (n=63)
[12] = AMT 2 mg/m^2 PO x 2, MTX 25 mg/m^2 PO x 4
[13] = eAMT and eMTX (marrow exposure)

Structure (SMILES): Nc1nc(N)c2nc(CNc3ccc(C(=O)N[C@@H](CCC(=O)O)C(=O)O)cc3)cnc2n1 [AMT]
- bioavailability ([1]; 2 mg/m2, AMT 2 mg/m^2, pediatric patients (age 0-21), 15 matched patients, read-out: Interpatient oral bioavailability (%)): 94%
- bioavailability ([1]; 2 mg/m2, AMT 2 mg/m^2, pediatric patients, n=15, read-out: Maximum (%) oral bioavailability): 165%
- bioavailability ([1]; 2 mg/m2, AMT 2 mg/m^2, pediatric patients, n=15, read-out: Minimum (%) oral bioavailability): 45%
- Event-free survival (EFS) at 24-months, Kaplan Meier ([2]; 25 high risk patients receiving aminopterin, standard risk patients receiving methotrexate): 93%
- Coefficient of variation of toxicity, absolute neutrophil count in consolidation [2, 9]: 80%
- Mean absolute neutrophil count in consolidation [2, 9]: 1667 cells/μL
- Coefficient of variation of toxicity, platelet counts in consolidation [2, 10]: 58%
- Mean platelet counts in consolidation [2, 10]: 316 cells × 10^3/μL
- Coefficient of variation of toxicity, level of liver enzymes above normal [2, 11]: 25%
- Mean level of liver enzymes above normal [2, 11]: 188 IU/L ALT
- Coefficient of variation of toxicity, level of liver enzymes above normal ([2]; AMT 2 mg/m^2 PO x 2 (n=104), MTX 25 mg/m^2 PO x 4 (n=63), listed as aminopterin): 25%
- Coefficient of variation Relative To The Invention, absolute neutrophil count in consolidation [2, 12]: 1.0
- Coefficient of variation Relative To The Invention, level of liver enzymes above normal [2, 12]: 1.0
- Coefficient of variation Relative To The Invention, platelet counts in consolidation [2, 12]: 1.0
- Patients with severe hepatotoxicity (liver enzyme elevations greater than five times normal) ([2]; AMT 4 mg/m^2/wk (n=104), MTX 100 mg/m^2/wk (n=63)): 5.8%
- Therapeutic Component: Antifolate dose ([2]; AMT high risk ALL (n=20), MTX standard risk ALL (n=20), Table V): 4 mg/m^2/wk:
- Therapeutic Component: Antifolate dose with same efficacy as MTX at 100 mg/m^2/wk ([2]; AMT high risk ALL (n=20), MTX standard risk ALL (n=20), Table VI): 4 mg/m^2/wk
- Therapeutic Index ([2]; Any elevation of liver enzymes): 1
- Toxicity Component: Antifolate dose with same toxicity as MTX at 100 mg/m^2/wk ([2]; Any elevation of liver enzymes): 4 mg/m^2/wk
- Therapeutic Index ([2]; Elevations in liver enzymes >5 times normal): 1
- Toxicity Component: Antifolate dose causing 5.8% of the population to have the toxicity ([2]; Elevations in liver enzymes >5 times normal (severe hepatotoxicity)): 4 mg/m^2/wk
- Therapeutic Index ([2]; Hospital admissions): 1
- Toxicity Component: Antifolate dose with same toxicity as MTX at 100 mg/m^2/wk ([2]; Hospital admissions): 4 mg/m^2/wk
- Therapeutic Index ([2]; Mucositis): 1
- Toxicity Component: Antifolate dose with same toxicity as MTX at 100 mg/m^2/wk ([2]; Mucositis): 4 mg/m^2/wk
- Therapeutic Index ([2]; Myelosuppression): 1
- Toxicity Component: Antifolate dose with same toxicity as MTX at 100 mg/m^2/wk ([2]; Myelosuppression): 4 mg/m^2/wk
- Therapeutic Index ([2]; Neutropenia): 1
- Toxicity Component: Antifolate dose with same toxicity as MTX at 100 mg/m^2/wk ([2]; Neutropenia): 4 mg/m^2/wk
- Therapeutic Index ([2]; Thrombocytopenia): 1
- Toxicity Component: Antifolate dose with same toxicity as MTX at 100 mg/m^2/wk ([2]; Thrombocytopenia): 4 mg/m^2/wk
- Therapeutic Index ([2]; Treatment interruptions): 1
- Toxicity Component: Antifolate dose with same toxicity as MTX at 100 mg/m^2/wk ([2]; Treatment interruptions): 4 mg/m^2/wk
- Therapeutic Index [2, 13]: 1
- Toxicity Component: Antifolate dose with same toxicity as MTX at 100 mg/m^2/wk [2, 13]: 4 mg/m^2/wk
- Coefficient of variation of toxicity of aminopterin as percent of that of methotrexate ([2]; elevated liver enzymes, 2 mg/m^2 aminopterin vs 25 mg/m^2 methotrexate): 71%
- Coefficient of variation of toxicity of aminopterin as percent of that of methotrexate ([2]; erythrocyte antifolate levels, 2 mg/m^2 aminopterin vs 20 mg/m^2 methotrexate): 12.4%
- Survival rate of high risk patients vs standard risk patients treated with equipotent methotrexate ([2]; follow-up period of up to 15 months, 20 patients per arm): equivalent survival rate
- Therapeutic Component: Percentage effective (no evidence of a disease manifestation) [2]: 100% effective at
- Therapeutic Component: Percentage effective (no evidence of a disease manifestation) ([2]; listed as aminopterin): 100%
- potency relative to methotrexate [3]: about 25 times
- displacement of tritiated methotrexate and binding to DHFR [4]: equivalent
- potency relative to methotrexate [5]: at least 10 times
- Therapeutic Index ([6]; Mucositis vs peripheral blasts/bone marrow infiltrates): 1
- Toxicity Component: Antifolate dose with same toxicity as MTX at 100 mg/m^2/wk ([6]; Mucositis): 4 mg/m^2/wk
- Therapeutic Index ([6]; Myelosuppression): 1
- Toxicity Component: Antifolate dose with same toxicity as MTX at 100 mg/m^2/wk ([6]; Myelosuppression): 4 mg/m^2/wk
- Therapeutic Index ([6]; Neutropenia): 1
- Toxicity Component: Antifolate dose with same toxicity as MTX at 100 mg/m^2/wk ([6]; Neutropenia): 4 mg/m^2/wk
- Therapeutic Index ([6]; Thrombocytopenia): 1
- Toxicity Component: Antifolate dose with same toxicity as MTX at 100 mg/m^2/wk ([6]; Thrombocytopenia): 4 mg/m^2/wk
- Therapeutic Component: Antifolate dose [6]: 4 mg/m^2/wk:
- Therapeutic Component: Percentage effective (complete remission or stable disease) [6]: 43% complete
- Therapeutic Component: Percentage effective (complete remission or stable disease) ([6]; listed as aminopterin): 43%
- Therapeutic Component: Antifolate dose ([6]; listed as aminopterin): 4 mg/m^2/wk
- Therapeutic index of aminopterin relative to corresponding therapeutic index of methotrexate ([6]; peripheral blasts in T-lineage ALL and mucositis): greater than 50 fold
- Interpatient coefficient of variation of oral bioavailability [7]: 42%
- antifolate content in brain parenchyma, aminopterin arm vs methotrexate arm ([8]; days 1, 12 and 22): significantly less antifolate
- antifolate content in liver, aminopterin vs methotrexate ([8]; days 1 and 22 after last dose): no different
